Key:
[1] = Cytotoxicity against human PBMC assessed as decrease in cell viability after 72 hrs by MTT assay; format: toxicity, cell-based; settings: PBMC (peripheral blood mononuclear cells)
[2] = system: Trypanosoma cruzi; test: Trypanocidal activity against bloodstream trypomastigote stage of Trypanosoma cruzi Y after 24 hrs by Neubauer chamber method; format: functional
[3] = Cytotoxicity against human PC3 cells assessed as decrease in cell viability after 72 hrs by MTT assay; format: functional, cell-based; settings: PC-3, 72 h
[4] = Cytotoxicity against human HL60 cells assessed as decrease in cell viability after 72 hrs by MTT assay; format: functional, cell-based; settings: HL-60, 72 h
[5] = Cytotoxicity against human MDA-MB-435 cells assessed as decrease in cell viability after 72 hrs by MTT assay; format: functional, cell-based; settings: MDA-MB-435, 72 h
[6] = Cytotoxicity against human SF295 cells assessed as decrease in cell viability after 72 hrs by MTT assay; format: functional, cell-based; settings: SF-295, 72 h
[7] = Cytotoxicity against human HCT116 cells assessed as decrease in cell viability after 72 hrs by MTT assay; format: functional, cell-based; settings: HCT-116, 72 h
[8] = system: Trypanosoma cruzi; test: Trypanocidal activity against bloodstream form of Trypanosoma cruzi after 24 hrs; format: functional
[9] = system: PC-3; test: Selectivity index, ratio of IC50 for human PBMC to IC50 for human PC3 cells
[10] = Selectivity index, ratio of IC50 for human PBMC to IC50 for human MDA-MB-435 cells
[11] = system: HL-60; test: Selectivity index, ratio of IC50 for human PBMC to IC50 for human HL60 cells
[12] = system: HCT-116; test: Selectivity index, ratio of IC50 for human PBMC to IC50 for human HCT116 cells
[13] = system: SF-295; test: Selectivity index, ratio of IC50 for human PBMC to IC50 for human SF295 cells

## O=C1C(=O)c2ccccc2C2=C1CC(Cn1nncc1-c1ccccc1)O2 (configuration not stated)
[1]
  IC50 at 72 h: 5.71 µM
[2]
  IC50: > 1000 µM
[3]
  IC50: 6.91 µM
[4]
  IC50: 4.11 µM
[5]
  IC50: 6.13 µM
[6]
  IC50: 7.78 µM
[7]
  IC50: 4.84 µM

## O=C1C(=O)c2ccccc2C2=C1CC(Cn1cc(C3(O)CCCCC3)nn1)O2 (configuration not stated)
[1]
  IC50 at 72 h: > 13.2 µM
[3]
  IC50: 12.4 µM
[4]
  IC50: 11 µM
[5]
  IC50: 10.2 µM
[6]
  IC50: 11.1 µM
[7]
  IC50: 12.7 µM
[8]
  IC50: 89.5 µM

## CC1(C)OC2=C(C(=O)c3ccccc3C2=O)C1n1nncc1-c1ccccc1 (configuration not stated)
[1]
  IC50 at 72 h: 7.57 µM
[2]
  IC50: > 1000 µM
[3]
  IC50: 3.07 µM
[4]
  IC50: 2.55 µM
[5]
  IC50: 3.71 µM
[6]
  IC50: 2.8 µM
[7]
  IC50: 2.5 µM

## O=C1C2=C(OC(Cn3nncc3-c3ccccc3)C2)C(=O)c2ccccc21 (configuration not stated)
[1]
  IC50 at 72 h: > 14 µM
[2]
  IC50: > 1000 µM
[3]
  IC50: > 14 µM
[4]
  IC50: 3.02 µM
[5]
  IC50: > 14 µM
[6]
  IC50: > 14 µM
[7]
  IC50: 3.36 µM

## CC1(C)OC2=C(C(=O)C(=O)c3ccccc32)C1n1nncc1-c1ccccc1 (configuration not stated)
[1]
  IC50 at 72 h: 2.02 µM
[2]
  IC50: 113 µM
[3]
  IC50: 1.34 µM
[4]
  IC50: 1.48 µM
[5]
  IC50: 1.75 µM
[6]
  IC50: 2.37 µM
[9]
  Ratio IC50: 1.5
[7]
  IC50: 1.37 µM

## CC1(C)CC(n2cc(-c3ccccc3)nn2)C2=C(O1)C(=O)c1ccccc1C2=O (configuration not stated)
[1]
  IC50 at 72 h: > 13 µM
[2]
  IC50: > 1000 µM
[3]
  IC50: > 13 µM
[4]
  IC50: 7.94 µM
[5]
  IC50: > 13 µM
[6]
  IC50: > 13 µM
[7]
  IC50: 9.63 µM

## O=C1C2=C(OC(Cn3nnc(-c4ccccc4)c3I)C2)C(=O)c2ccccc21 (configuration not stated)
[1]
  IC50 at 72 h: > 10.3 µM
[2]
  IC50: > 1000 µM
[3]
  IC50: > 10.3 µM
[4]
  IC50: 5.4 µM
[5]
  IC50: > 10.3 µM
[6]
  IC50: > 10.3 µM
[7]
  IC50: 6.04 µM

## O=C1C(=O)c2ccccc2C2=C1CC(Cn1nnc(-c3ccccc3)c1I)O2 (configuration not stated)
[1]
  IC50 at 72 h: 3.68 µM
[2]
  IC50: > 1000 µM
[3]
  IC50: 2.17 µM
[4]
  IC50: 2.38 µM
[5]
  IC50: 5.65 µM
[6]
  IC50: 3.68 µM
[7]
  IC50: 4.16 µM

## CC1(C)CC(n2nnc(-c3ccccc3)c2I)C2=C(O1)C(=O)c1ccccc1C2=O (configuration not stated)
[1]
  IC50 at 72 h: > 9.78 µM
[2]
  IC50: > 1000 µM
[3]
  IC50: > 9.78 µM
[4]
  IC50: > 9.78 µM
[5]
  IC50: > 9.78 µM
[6]
  IC50: > 9.78 µM
[7]
  IC50: > 9.78 µM

## O=C1C2=C(OC(Cn3cc(-c4ccccc4)nn3)C2)C(=O)c2ccccc21 (configuration not stated)
[1]
  IC50 at 72 h: > 14 µM
[2]
  IC50: > 1000 µM
[3]
  IC50: > 14 µM
[4]
  IC50: 7.95 µM
[5]
  IC50: > 14 µM
[6]
  IC50: > 14 µM
[7]
  IC50: 8.7 µM

## O=C1C(=O)c2ccccc2C2=C1CC(Cn1cc(C3CCCCC3)nn1)O2 (configuration not stated)
[1]
  IC50 at 72 h: 5.17 µM
[3]
  IC50: 2.55 µM
[4]
  IC50: 2.25 µM
[5]
  IC50: 1.21 µM
[6]
  IC50: 1.89 µM
[7]
  IC50: 2.17 µM
[8]
  IC50: 214 µM

## O=C1C(=O)c2ccccc2C2=C1CC(Cn1cc(C3=CCCCC3)nn1)O2 (configuration not stated)
[1]
  IC50 at 72 h: 5.31 µM
[3]
  IC50: 4.37 µM
[4]
  IC50: 3.29 µM
[5]
  IC50: 2.68 µM
[6]
  IC50: 2.32 µM
[7]
  IC50: 3.98 µM
[8]
  IC50: 55.3 µM

## O=C1C(=O)c2ccccc2C2=C1CC(Cn1nnc(-c3ccccc3)c1-c1ccccc1)O2 (configuration not stated)
[1]
  IC50 at 72 h: 2.16 µM
[2]
  IC50: > 1000 µM
[3]
  IC50: 1.29 µM
[4]
  IC50: 1.15 µM
[5]
  IC50: 1.17 µM
[6]
  IC50: 1.43 µM
[7]
  IC50: 1.68 µM

## CC1(C)OC2=C(C(=O)C(=O)c3ccccc32)[C@H](n2nnc(-c3ccccc3)c2I)[C@H]1Br
[1]
  IC50 at 72 h: > 8.48 µM
[2]
  IC50: > 1000 µM
[3]
  IC50: > 8.48 µM
[4]
  IC50: > 8.48 µM
[5]
  IC50: > 8.48 µM
[6]
  IC50: > 8.48 µM
[7]
  IC50: > 8.48 µM

## CC1(C)CC(n2nncc2-c2ccccc2)C2=C(O1)C(=O)c1ccccc1C2=O (configuration not stated)
[1]
  IC50 at 72 h: > 13 µM
[2]
  IC50: > 1000 µM
[3]
  IC50: > 13 µM
[4]
  IC50: > 13 µM
[5]
  IC50: > 13 µM
[6]
  IC50: > 13 µM
[7]
  IC50: > 13 µM

## CC1(C)OC2=C(C(=O)c3ccccc3C2=O)C1n1nnc(-c2ccccc2)c1I (configuration not stated)
[1]
  IC50 at 72 h: 7.86 µM
[2]
  IC50: > 1000 µM
[3]
  IC50: 5.73 µM
[4]
  IC50: 4.22 µM
[5]
  IC50: 5.69 µM
[6]
  IC50: 4.58 µM
[7]
  IC50: 5.17 µM

## CCCCCCc1cn(CC2CC3=C(O2)c2ccccc2C(=O)C3=O)nn1 (configuration not stated)
[1]
  IC50 at 72 h: 5.99 µM
[3]
  IC50: 3.42 µM
[4]
  IC50: 2.02 µM
[5]
  IC50: 1.91 µM
[6]
  IC50: 2.7 µM
[7]
  IC50: 2.13 µM
[8]
  IC50: 86.7 µM

## O=C1C(=O)c2ccccc2C2=C1CC(Cn1cc(-c3ccccc3)nn1)O2 (configuration not stated)
[1]
  IC50 at 72 h: 3.24 µM
[2]
  IC50: > 1000 µM
[3]
  IC50: 2.07 µM
[4]
  IC50: 3.55 µM
[5]
  IC50: 3.08 µM
[6]
  IC50: 3.24 µM
[7]
  IC50: 2.4 µM

## CC1(C)OC2=C(C(=O)C(=O)c3ccccc32)[C@H](n2nncc2-c2ccccc2)[C@H]1Br
[1]
  IC50 at 72 h: 1.23 µM
[10]
  Ratio IC50: 0.8 - 3
[2]
  IC50: 125 µM
[3]
  IC50: 0.41 µM
[4]
  IC50: 0.66 µM
[5]
  IC50: 0.77 µM
[11]
  Ratio IC50: 0.8 - 3
[12]
  Ratio IC50: 0.8 - 3
[6]
  IC50: 1.59 µM
[13]
  Ratio IC50: 0.8 - 3
[9]
  Ratio IC50: 0.8 - 3
[7]
  IC50: 0.47 µM

## CC1(C)OC2=C(C(=O)C(=O)c3ccccc32)C1n1nnc(-c2ccccc2)c1I (configuration not stated)
[1]
  IC50 at 72 h: 4.08 µM
[2]
  IC50: > 1000 µM
[3]
  IC50: 2.77 µM
[4]
  IC50: 2.59 µM
[5]
  IC50: 3.05 µM
[6]
  IC50: 2.83 µM
[7]
  IC50: 3.35 µM

## CC1(C)CCC2=C(O1)c1ccccc1C(=O)C2=O [LAPACHONE]
[2]
  IC50: 392 µM

From ChEMBL document CHEMBL3861945 (Medchemcomm, 2016)
